We go through six compounds from patent publication US20210284618A1, “FURANOCHALCONES AS INHIBITORS OF CYP1A1, CYP1A2 AND CYP1B1 FOR CANCER CHEMOPREVENTION” (Council of Scientific & Industrial Research, priority 2016, published 2021).

In data set [1] the target is T1, CYP1A1 (Homo sapiens, UniProt P04798).
T1 construct: host or cells: yeast microsomes (Saccharosomes)
T1 sequence (P04798 1-512): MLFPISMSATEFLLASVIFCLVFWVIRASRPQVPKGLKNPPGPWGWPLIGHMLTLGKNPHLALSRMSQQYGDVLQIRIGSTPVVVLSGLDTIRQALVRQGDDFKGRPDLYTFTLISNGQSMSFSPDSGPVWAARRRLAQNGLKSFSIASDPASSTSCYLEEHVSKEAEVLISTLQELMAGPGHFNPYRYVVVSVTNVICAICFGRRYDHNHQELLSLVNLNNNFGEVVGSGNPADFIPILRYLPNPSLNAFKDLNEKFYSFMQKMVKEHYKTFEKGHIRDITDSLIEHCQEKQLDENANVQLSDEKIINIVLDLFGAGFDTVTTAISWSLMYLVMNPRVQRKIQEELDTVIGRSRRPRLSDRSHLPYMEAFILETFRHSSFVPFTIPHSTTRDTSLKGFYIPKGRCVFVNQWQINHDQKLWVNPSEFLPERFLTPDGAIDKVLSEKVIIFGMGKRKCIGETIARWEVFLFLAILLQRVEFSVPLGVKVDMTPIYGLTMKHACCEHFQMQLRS
The experiment in a line: In-vitro CYP450 1A1 enzyme inhibition in Saccharosomes. The settings on record: human, Saccharosomes containing CYP1A1, pH 7.4, probe ethoxyresorufin (5 μM), % inhibition of CYP1A1 in Saccharosomes at 10 μM, 10 μM test compound, 5 μM ethoxyresorufin. The class given is biochemical. As for the experimental part:
Example 23. In-vitro CYP450 1A1 enzyme inhibition in Saccharosomes™: The screening method utilizes 384-well microplates to rapidly ascertain relative percentage inhibition of CYP1A1 by a library of compounds. Each reaction was performed in black, clear-bottomed 384-well microplates. A reaction volume of 50 μl comprised of 0.5 pmol of the cytochrome P450 CYP1A1 (Saccharosomes), 5 μM of ethoxyresorufin substrate (which contributes 0.05% DMSO to the well), 10 μM of potential inhibitor test article (which contributes 0.5% DMSO to the well), A P450 reductase NADPH regenerating system (1.3 mM NADP+, 3.3 mM glucose-6-0.02 units phosphate and glucose-6-Phosphate dehydrogenase), potassium phosphate buffer (final well concentration 100 mM, pH 7.4) and water. Very small quantities of magnesium chloride and sodium citrate are added to the NADPH regenerating system, in line with standard published protocols. The potential inhibitor (test article) was pre-incubated with CYP1A1 of at least 20 minutes at 30° C. After this period, the remainder of the reagents required in the assay was added to initiate the process. The reaction mixture was incubated for another 20 minutes at 30° C. The reaction was stopped by adding an 80% acetonitrile, 20% 0.5 M Tris solution. The reactions were monitored using the Biotek Synergy HT plate reader by measuring the endpoint reaction at Excitation 530/(25 bandwidth) & Emission 590/(20 bandwidth) using a gain/sensitivity setting of 60. The mean of the quadruplicates of the negative control (solvent inactivated CYP1A1) was deducted from the mean of potential inhibitor (test article) samples. The percentage was then derived relative to the mean of the wells without inhibitor.
(§1) Example 25. IC50 determination for best compound against CYP1A1, CYP1B1 and other CYPs in Saccharosomes. Compounds were serially diluted to six different concentrations with 10% DMSO in a Sero-Well white microplate. The experiment was performed in a similar way as described above in examples 23 and 24.

The target in data set [2] is T2, CYP1B1 (Homo sapiens, UniProt Q16678).
T2 sequence (Q16678 1-543): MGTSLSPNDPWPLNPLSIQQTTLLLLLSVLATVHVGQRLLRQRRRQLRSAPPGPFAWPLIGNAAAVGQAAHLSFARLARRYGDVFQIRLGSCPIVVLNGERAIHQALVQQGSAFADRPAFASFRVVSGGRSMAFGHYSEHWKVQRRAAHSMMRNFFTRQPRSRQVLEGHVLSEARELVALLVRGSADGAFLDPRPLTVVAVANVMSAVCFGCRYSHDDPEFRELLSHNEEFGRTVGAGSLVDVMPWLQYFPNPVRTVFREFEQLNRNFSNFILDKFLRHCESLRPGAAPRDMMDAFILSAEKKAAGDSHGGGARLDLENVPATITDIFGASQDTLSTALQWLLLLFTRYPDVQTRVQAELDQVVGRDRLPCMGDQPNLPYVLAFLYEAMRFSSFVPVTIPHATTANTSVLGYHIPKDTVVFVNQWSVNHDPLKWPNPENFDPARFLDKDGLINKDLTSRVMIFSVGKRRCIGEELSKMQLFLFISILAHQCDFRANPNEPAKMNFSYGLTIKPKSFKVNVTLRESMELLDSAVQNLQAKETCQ
As to the kind of experiment: CYP1B1 inhibition in live human cells (HEK293). Type of data set: cell-based.

Data set [3] has as its target T2, CYP1B1. As to the kind of experiment: In-vitro CYP450 1B1 enzyme inhibition in Saccharosomes. Also noted: purchased CYP Design Ltd; host or cells: yeast microsomes (Saccharosomes). The settings on record: human, Saccharosomes (yeast-derived) with recombinant CYP1B1, probe 7-ethoxyresorufin (5 μl of 0.1 mM), % inhibition of CYP1B1 in Saccharosomes at 10 μM, 10 μM test compound, 7-ethoxyresorufin. The class given is biochemical. As to the method:
Example 24. In-vitro CYP450 1B1 enzyme inhibition in Saccharosomes™: Regenerating system consists of: 5 μl Solution A (183 mg of NADP++183 mg of glucose-6-phosphate+654 μl of 1.0 M magnesium chloride solution+9.15 ml of sterile ultra-pure water)+1 μl Solution B (250 Units of glucose-6-phosphate dehydrogenase+6.25 ml of 5 mM sodium citrate; mixed in a tube and made up to 10 ml with sterile ultra-pure water)+39 μl 0.2 M Kpi (0.6 ml of 1.0M K2HPO4+9.4 ml of 1.0 M KH2PO4 were mixed and made up to 50 ml with sterile ultra-pure water)+5 μl potential inhibitory compound.
as §1

Data set [4] has as its target T1, CYP1A1. As to the kind of experiment: CYP1A1 inhibition in HEK293 cells transfected with pcDNA3.1/CYP1A1 (live cells). The settings on record: for inhibition at 10 μM: human, HEK293 cells transfected with pcDNA3.1/CYP1A1 (live cells), probe EROD (5 μM), % inhibition of CYP1A1 in HEK293 cells at 10 μM, 5 μM EROD. The class given is cell-based. As to the method: Example 26. In-vitro CYP450 inhibition in HEK293 cells transfected with pcDNA3.1/CYP1A1 against 5 μM EROD. […] The HEK293 cells used here was procured from ‘European Collection of Authenticated Cell Cultures’ (catalog number. ECACC 85120602).

Where only a bound is given, the exact number is not on record here.

As a reminder, the inhibition is the relative decrease from the control value, in per cent. In general, IC50 refers to the midpoint of a concentration-inhibition curve. The low end stands for inhibition by little substance, the high end for a need for much substance. As usually defined, the melting point is the temperature of the solid-liquid transition.

As to `COc1c(C(=O)/C=C/c2ccc(F)cc2)c(O)c(OC)c2occc12` [Compound 6, 3-(4,7-dimethoxy-6-hydroxybenzofuran-5-yl)-1-(4-fluorophenyl)-3-oxopropene], at CYP1A1 [1], the inhibition at 20 min, 10 μM is above 80%. For the same compound, the IC50 on CYP1B1 [2] is 1320 nM; against CYP1A1 [4], 480 nM. Further, the inhibition at 10 μM on CYP1B1 [3] turned out to be 49.5%; on CYP1A1 [4], 79.6%.
`COc1ccc(/C=C/C(=O)c2c(O)c(OC)c3occc3c2OC)cc1` [Compound 9, 3-(4,7-dimethoxy-6-hydroxybenzofuran-5-yl)-1-(4-methoxyphenyl)-3-oxopropene] came in with a melting point of 198 to 199 °C. On CYP1A1 [1], the inhibition at 20 min, 10 μM came out at 28.9%. Besides, the inhibition at 10 μM against CYP1A1 [4] is 55.7%.
Regarding `COc1c(C(=O)/C=C/c2c(Cl)cccc2Cl)c(O)c(OC)c2occc12` [Compound 10, 3-(4,7-dimethoxy-6-hydroxybenzofuran-5-yl)-1-(2,6-dichlorophenyl)-3-oxopropene], the melting point fell in the range of 298 to 299 °C. At CYP1A1 [1], the inhibition at 20 min, 10 μM came to 19.6%. Moreover, on CYP1A1 [4], the inhibition at 10 μM is 58.8%.
On the same counts, the results for `CCOc1ccc(Br)cc1/C=C/C(=O)c1c(O)c(OC)c2occc2c1OC` [Compound 11, 3-(4,7-dimethoxy-6-hydroxybenzofuran-5-yl)-1-(2-ethoxy,5-bromophenyl)-3-oxopropene] are 260 to 261 °C, 64.3% and 31.7%.
As to `COc1c(C(=O)/C=C/c2ccccc2Cl)c(O)c(OC)c2occc12` [Compound 12, 3-(4,7-dimethoxy-6-hydroxybenzofuran-5-yl)-1-(2-chlorophenyl)-3-oxopropene], the melting point is 160 to 161 °C. Besides, the inhibition at 20 min, 10 μM on CYP1A1 [1] was 23.6%. Also, on CYP1A1 [4], the inhibition at 10 μM came out at 19.5%.
Turning to `COc1c(C(=O)/C=C/c2c(F)c(F)c(F)c(F)c2F)c(O)c(OC)c2occc12` [Compound 15, 3-(4,7-dimethoxy-6-hydroxybenzofuran-5-yl)-1-(2,3,4,5,6 pentafluorophenyl)-3-oxopropene], the melting point was in the range of 300 to 301 °C. For the same compound, the inhibition at 20 min, 10 μM at CYP1A1 [1] came out at 21.9%. The same compound yielded an inhibition at 10 μM at CYP1A1 [4] of 71.6%.
